Laboratory results: patent US20110280862A1, “GEP AND DRUG TRANSPORTER REGULATION, CANCER THERAPY AND PROGNOSIS” (THE UNIVERSITY OF HONG KONG, priority 2010, published 2011)
Converted amounts (≈) assume the structure as drawn. Like-named read-outs stand apart in the source and are kept apart here.

Assays:
Assay type in all cases: cell-based, Human
[1] = system: Hep3B cells; assay: MTT assay, drug IC50, parental cells
Procedure: (§1) Human liver cancer cell lines, Hep3B and HepG2, were purchased from American Type Culture Collection (Manassas, Va.). Culture method has been previously described, for example by Ho J C, et al. Hepatology 2008; 47: 1524-1532 and Cheung S T, et al. Clin Cancer Res 2004; 10: 7629-7636. Stable transfectants for GEP overexpression and suppression have also been described. For chemoresistant populations, the Hep3B cells were plated out and selected under various chemotherapeutic agents of various concentrations at 10-fold dilution for 30 days. The highest dose that still had viable cells over the extended selection period was used and the cells expanded for further selection. The one-step selected cells were then plated out again and selected under escalating doses of the respective drug in a 2-fold manner for another 30 days. The two-step selection process could select a population of cells more resistant to chemotherapeutic agents. The cells selected for resistance to doxorubicin were referred to as doxorubicin resistant cells. […] The drug IC50 value was determined by MTT assay. […] Apoptosis was determined by Annexin V-FITC (AV-FLI) and propidium iodide (PI-FL2) staining using flow cytometry. […] For doxorubicin uptake assays, cells were incubated with or without doxorubicin for 24 hours, and doxorubicin content (FL2) was analyzed by flow cytometry. […]

[2] = system: cisplatin resistant cells; assay: MTT assay, drug IC50, cisplatin resistant cells
Procedure: as §1

[3] = system: doxorubicin resistant cells; assay: MTT assay, drug IC50, doxorubicin resistant cells
Procedure: as §1

[4] = system: GEP overexpression transfectants; assay: Doxorubicin uptake assay by flow cytometry; details: doxorubicin 0.5 μg/ml, 24 hours, control or with ABCB5 suppression by siRNA
Procedure: (§2) Human liver cancer cell lines, Hep3B and HepG2, were purchased from American Type Culture Collection (Manassas, Va.). Culture method has been previously described, for example by Ho J C, et al. Hepatology 2008; 47: 1524-1532 and Cheung S T, et al. Clin Cancer Res 2004; 10: 7629-7636. Stable transfectants for GEP overexpression and suppression have also been described. For chemoresistant populations, the Hep3B cells were plated out and selected under various chemotherapeutic agents of various concentrations at 10-fold dilution for 30 days. The highest dose that still had viable cells over the extended selection period was used and the cells expanded for further selection. The one-step selected cells were then plated out again and selected under escalating doses of the respective drug in a 2-fold manner for another 30 days. The two-step selection process could select a population of cells more resistant to chemotherapeutic agents. The cells selected for resistance to doxorubicin were referred to as doxorubicin resistant cells. Similarly, the cells selected under cisplatin were referred to as cisplatin resistant cells. The drug IC50 value was determined by MTT assay. For apoptosis assays, cells were incubated with or without chemotherapeutic agents for 24 to 48 hours. Apoptosis was determined by Annexin V-FITC (AV-FLI) and propidium iodide (PI-FL2) staining using flow cytometry. The total apoptotic population included the early apoptotic cells (high MFI of AV but low PI) plus the late apoptotic cells (high MFI of both AV and PI) of the scatter plot. […] For doxorubicin uptake assays, cells were incubated with or without doxorubicin for 24 hours, and doxorubicin content (FL2) was analyzed by flow cytometry. Pilot studies had examined treatment time-points 0, 1, 3, 6 and 24 hours, and the latter three time-points had similar data profiles. […] There was a time-dependent effect, and thus the data charts presented the data of the 24-hour treatment in comparison with the baseline data. […]

[5] = system: Hep3B cells; assay: Doxorubicin uptake assay by flow cytometry; details: doxorubicin 0.5 μg/ml, 24 hours, control or with ABCB5 suppression by siRNA
Procedure: as §2

[6] = system: doxorubicin resistant cells; assay: Doxorubicin uptake assay by flow cytometry; details: doxorubicin 0.5 μg/ml, 24 hours, control or with ABCB5 suppression by siRNA
Procedure: as §2

[7] = system: GEP overexpression transfectants; assay: Apoptosis assay, Annexin V/PI flow cytometry; details: doxorubicin 0.5 μg/ml, 24 hours, control or with ABCB5 suppression by siRNA
Procedure: as §2

[8] = system: Hep3B cells; assay: Apoptosis assay, Annexin V/PI flow cytometry; details: doxorubicin 0.5 μg/ml, 24 hours, control or with ABCB5 suppression by siRNA
Procedure: as §2

[9] = system: doxorubicin resistant cells; assay: Apoptosis assay, Annexin V/PI flow cytometry; details: doxorubicin 0.5 μg/ml, 24 hours, control or with ABCB5 suppression by siRNA
Procedure: as §2

## N.N.[Cl][Pt][Cl] [cisplatin]
[1]
  IC50: 0.84 µg/mL
[2]; cisplatin resistant cells vs parental cells
  increase in resistance compared to parental cells: more than 10 folds
[2]; cisplatin resistant cells, MTT assay
  IC50: 8.53 µg/mL

## COc1cccc2c1C(=O)c1c(O)c3c(c(O)c1C2=O)C[C@@](O)(C(=O)CO)C[C@@H]3O[C@H]1C[C@H](N)[C@H](O)[C@H](C)O1 [doxorubicin]
[1]; Homo sapiens, Hep3B, read-out: IC50
  IC50: 0.11 µg/mL (≈ 0.202 µM)
[3]; Homo sapiens, doxorubicin resistant cells, MTT assay
  IC50: 1.78 µg/mL (≈ 3.27 µM)
[3]; doxorubicin resistant cells vs parental cells
  increase in resistance compared to parental cells: more than 16 folds
[4]
  population with doxorubicin uptake: 55.4%
[5]
  population with doxorubicin uptake: 76.4%
[6]
  population with doxorubicin uptake: 31.1%
[7]
  net increase in apoptotic populations: 11.3%
[8]
  net increase in apoptotic populations: 12.5%
[9]
  net increase in apoptotic populations: 7.7%
